# Experimental data as given in patent EP4692071A1, “PHOTOCHROMIC COMPOUND, NAPHTHOL DERIVATIVE, CURABLE COMPOSITION, OPTICAL ARTICLE, LENS, AND EYEGLASS” (TOKUYAMA CORPORATION, priority 2023, dated 2024).
# Experiment: Maximum absorption wavelength (λmax) after color development, spectrophotometer MCPD3000
# Format: physicochemical
# Conditions: photochromic laminate by coating method, 40 µm photochromic layer on thiourethane lens, 0.25 mmol compound per 100 g monomers
# Method in brief: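 Read-out: absorbance at λmax, multichannel photodetector spectrophotometer. Colour density = ε(240) − ε(0), 240 s light, 23°C. τ1/2 = time for ε(240) − ε(0) to halve after light off. Residual rate compares density before and after 90 h xenon weathering.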
row,SMILES,Maximum absorption wavelength (nm)
1,CCCCCCC1(CCCCCC)c2cc(Oc3ccccc3)ccc2-c2c1c1c(c3cc(OC)c(N(c4ccccc4)c4ccc(C)cc4)cc23)OC(c2ccc(OC)cc2)(c2ccc(OCCCC)cc2)C=C1 (stereo not drawn) [Example 52 Formula (119)],518 nm

# Same assay, conditions: photochromic laminate by coating method, 40 µm photochromic layer on thiourethane lens, 0.25 mmol compound per 100 g monomers; absorption band at 463 nm
row,SMILES,Maximum absorption wavelength (nm)
1,"CCCCOc1ccc(C2(c3ccc(OCCCC)cc3)C=Cc3c4c(c5cc(NC(=O)c6ccccc6)c(OC)cc5c3O2)-c2ccccc2C4(C)C)cc1 [Formula (B), reference compound]",463 nm

# Same assay, conditions: photochromic laminate by coating method, 40 µm photochromic layer on thiourethane lens, 0.25 mmol compound per 100 g monomers; absorption band at 469 nm
row,SMILES,Maximum absorption wavelength (nm)
1,"COc1ccc(C2(c3ccc(OC)cc3)C=Cc3c4c(c5cc(Sc6c(C)cccc6C)c(OC)cc5c3O2)-c2ccccc2C4(C)C)cc1 [Formula (C), reference compound]",469 nm

# Same assay, conditions: photochromic laminate by coating method, 40 µm photochromic layer on thiourethane lens, 0.25 mmol compound per 100 g monomers; absorption band at 570 nm
row,SMILES,Maximum absorption wavelength (nm)
1,"COc1ccc(C2(c3ccc(OC)cc3)C=Cc3c4c(c5cc(Sc6c(C)cccc6C)c(OC)cc5c3O2)-c2ccccc2C4(C)C)cc1 [Formula (C), reference compound]",570 nm

# Same assay, conditions: photochromic laminate by coating method, 40 µm photochromic layer on thiourethane lens, 0.25 mmol compound per 100 g monomers; absorption band at 573 nm
row,SMILES,Maximum absorption wavelength (nm)
1,"CCCCOc1ccc(C2(c3ccc(OCCCC)cc3)C=Cc3c4c(c5cc(NC(=O)c6ccccc6)c(OC)cc5c3O2)-c2ccccc2C4(C)C)cc1 [Formula (B), reference compound]",573 nm

# Experiment: 23°C color optical density (A23): absorbancy difference ε(240)-ε(0) after 240 s light irradiation at 23°C
# Format: physicochemical
# Conditions: photochromic laminate by coating method, 240 s irradiation, at the maximum absorption wavelength
# Method in brief: (§1)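 Photochromic plastic lens samples were irradiated for 240 s at 23°C, and colour density was taken as the absorbance change at the absorption maximum. Fading half-life was timed from the end of irradiation until that absorbance change fell by half. Durability compared colour density before and after xenon-lamp ageing.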
row,SMILES,A23 (-)
1,CCCCCCC1(CCCCCC)c2cc(Oc3ccccc3)ccc2-c2c1c1c(c3cc(OC)c(N(c4ccccc4)c4ccc(C)cc4)cc23)OC(c2ccc(OC)cc2)(c2ccc(OCCCC)cc2)C=C1 (stereo not drawn) [Example 52 Formula (119)],1.82 -

# Same assay, conditions: photochromic laminate by coating method, comparative compounds, 240 s irradiation, absorption band at 463 nm
row,SMILES,23°C color optical density (-)
1,"CCCCOc1ccc(C2(c3ccc(OCCCC)cc3)C=Cc3c4c(c5cc(NC(=O)c6ccccc6)c(OC)cc5c3O2)-c2ccccc2C4(C)C)cc1 [Formula (B), reference compound]",1.30 -

# Same assay, conditions: photochromic laminate by coating method, comparative compounds, 240 s irradiation, absorption band at 469 nm
row,SMILES,23°C color optical density (-)
1,"COc1ccc(C2(c3ccc(OC)cc3)C=Cc3c4c(c5cc(Sc6c(C)cccc6C)c(OC)cc5c3O2)-c2ccccc2C4(C)C)cc1 [Formula (C), reference compound]",1.20 -

# Same assay, conditions: photochromic laminate by coating method, comparative compounds, 240 s irradiation, absorption band at 570 nm
row,SMILES,23°C color optical density (-)
1,"COc1ccc(C2(c3ccc(OC)cc3)C=Cc3c4c(c5cc(Sc6c(C)cccc6C)c(OC)cc5c3O2)-c2ccccc2C4(C)C)cc1 [Formula (C), reference compound]",0.77 -

# Same assay, conditions: photochromic laminate by coating method, comparative compounds, 240 s irradiation, absorption band at 573 nm
row,SMILES,23°C color optical density (-)
1,"CCCCOc1ccc(C2(c3ccc(OCCCC)cc3)C=Cc3c4c(c5cc(NC(=O)c6ccccc6)c(OC)cc5c3O2)-c2ccccc2C4(C)C)cc1 [Formula (B), reference compound]",0.90 -

# Experiment: 35°C color optical density (A35): absorbancy difference ε(240)-ε(0) after 240 s light irradiation at 35°C
# Format: physicochemical
# Conditions: photochromic laminate by coating method, 240 s irradiation
# Method in brief: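 A photochromic cured product was irradiated with light at 35°C for 240 seconds. The 35°C color optical density (A35) was the absorbancy after irradiation {ε(240)} minus the absorbancy without irradiation ε(0), read at the first and second absorption wavelengths. It served as an indicator of color optical density.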
row,SMILES,A35 (-)
1,CCCCCCC1(CCCCCC)c2cc(Oc3ccccc3)ccc2-c2c1c1c(c3cc(OC)c(N(c4ccccc4)c4ccc(C)cc4)cc23)OC(c2ccc(OC)cc2)(c2ccc(OCCCC)cc2)C=C1 (stereo not drawn) [Example 52 Formula (119)],1.34 -

# Same assay, conditions: photochromic laminate by coating method, comparative compounds, 240 s irradiation, absorption band at 463 nm
row,SMILES,35°C color optical density (-)
1,"CCCCOc1ccc(C2(c3ccc(OCCCC)cc3)C=Cc3c4c(c5cc(NC(=O)c6ccccc6)c(OC)cc5c3O2)-c2ccccc2C4(C)C)cc1 [Formula (B), reference compound]",0.88 -

# Same assay, conditions: photochromic laminate by coating method, comparative compounds, 240 s irradiation, absorption band at 469 nm
row,SMILES,35°C color optical density (-)
1,"COc1ccc(C2(c3ccc(OC)cc3)C=Cc3c4c(c5cc(Sc6c(C)cccc6C)c(OC)cc5c3O2)-c2ccccc2C4(C)C)cc1 [Formula (C), reference compound]",0.78 -

# Same assay, conditions: photochromic laminate by coating method, comparative compounds, 240 s irradiation, absorption band at 570 nm
row,SMILES,35°C color optical density (-)
1,"COc1ccc(C2(c3ccc(OC)cc3)C=Cc3c4c(c5cc(Sc6c(C)cccc6C)c(OC)cc5c3O2)-c2ccccc2C4(C)C)cc1 [Formula (C), reference compound]",0.50 -

# Same assay, conditions: photochromic laminate by coating method, comparative compounds, 240 s irradiation, absorption band at 573 nm
row,SMILES,35°C color optical density (-)
1,"CCCCOc1ccc(C2(c3ccc(OCCCC)cc3)C=Cc3c4c(c5cc(NC(=O)c6ccccc6)c(OC)cc5c3O2)-c2ccccc2C4(C)C)cc1 [Formula (B), reference compound]",0.62 -

# Experiment: High-temperature color development rate (A35/A23×100), temperature dependency
# Format: physicochemical
# Conditions: photochromic laminate by coating method
# Method in brief: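 Color optical density was taken as the absorbance after 240 seconds of light irradiation, ε(240), minus the absorbance without irradiation, ε(0), at the absorption maximum. It was measured at 23°C (A23) and at 35°C (A35), and the ratio A35/A23×100 served as the high-temperature color development rate, showing temperature dependency.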
row,SMILES,A35/A23 *100 (%)
1,CCCCCCC1(CCCCCC)c2cc(Oc3ccccc3)ccc2-c2c1c1c(c3cc(OC)c(N(c4ccccc4)c4ccc(C)cc4)cc23)OC(c2ccc(OC)cc2)(c2ccc(OCCCC)cc2)C=C1 (stereo not drawn) [Example 52 Formula (119)],74%

# Same assay, conditions: photochromic laminate by coating method, comparative compounds; corresponds to A35/A23×100
row,SMILES,Temperature change rate (%)
1,"CCCCOc1ccc(C2(c3ccc(OCCCC)cc3)C=Cc3c4c(c5cc(NC(=O)c6ccccc6)c(OC)cc5c3O2)-c2ccccc2C4(C)C)cc1 [Formula (B), reference compound]",68%
2,"COc1ccc(C2(c3ccc(OC)cc3)C=Cc3c4c(c5cc(Sc6c(C)cccc6C)c(OC)cc5c3O2)-c2ccccc2C4(C)C)cc1 [Formula (C), reference compound]",65%

# Experiment: Residual rate (A90/A0×100) after 90 h accelerated deterioration in xenon weather meter X25, color developing durability
# Format: physicochemical
# Conditions: photochromic laminate by coating method; xenon weather meter 90 hours
# Method in brief: as §1
row,SMILES,Residual rate (%)
1,CCCCCCC1(CCCCCC)c2cc(Oc3ccccc3)ccc2-c2c1c1c(c3cc(OC)c(N(c4ccccc4)c4ccc(C)cc4)cc23)OC(c2ccc(OC)cc2)(c2ccc(OCCCC)cc2)C=C1 (stereo not drawn) [Example 52 Formula (119)],79%
2,"CCCCOc1ccc(C2(c3ccc(OCCCC)cc3)C=Cc3c4c(c5cc(NC(=O)c6ccccc6)c(OC)cc5c3O2)-c2ccccc2C4(C)C)cc1 [Formula (B), reference compound]",68%
3,"COc1ccc(C2(c3ccc(OC)cc3)C=Cc3c4c(c5cc(Sc6c(C)cccc6C)c(OC)cc5c3O2)-c2ccccc2C4(C)C)cc1 [Formula (C), reference compound]",73%
